Several values for one entry are separate records, joined by “and”; a condition that tells them apart may be missing. Equal entries are not always repeated. Where two headings read alike, the source gives them in different places.
Legend:
A/Weiss/1943 (H1N1) = experiment: microbe, parasite or virus in culture; format: cell-based, Influenza A virus
[1] = system: A/Puerto Rico/8/1934 (H1N1); experiment: microbe, parasite or virus in culture; format: cell-based, Influenza A virus
[2] = system: A/Hong Kong/8/1968 (H3N2); experiment: microbe, parasite or virus in culture; format: cell-based, Influenza A virus
A/Malaya/302/1954 (H1N1) = experiment: microbe, parasite or virus in culture; format: cell-based, Influenza A virus
[3] = system: IAV H1N1 and H3N2 isolates; experiment: microbe, parasite or virus in culture; format: cell-based, Influenza A virus
[4] = system: A/Puerto Rico/8/1934 (H1N1); set-up: species or system BALB/c mice; details: mouse, in vivo
[5] = system: A/Puerto Rico/8/1934 (H1N1); set-up: species or system BALB/c mice; details: mouse, in vivo; remark: listed apart in the source
[6] = system: A/Brisbane/05/2018 (H1N1); experiment: microbe, parasite or virus in culture; format: cell-based; details: Influenza A virus, H1N1, MDCK
[7] = system: A/Michigan/45/2015 (H1N1); experiment: microbe, parasite or virus in culture; format: cell-based; details: Influenza A virus, H1N1, MDCK
[8] = system: A/California/07/2009 (H1N1); experiment: microbe, parasite or virus in culture; format: cell-based; details: Influenza A virus, H1N1, MDCK
[9] = system: A/Mexico/4108/2009 (H1N1); experiment: microbe, parasite or virus in culture; format: cell-based; details: Influenza A virus, H1N1, MDCK
[10] = system: A/New York/18/2009 (H1N1); experiment: microbe, parasite or virus in culture; format: cell-based; details: Influenza A virus, H1N1, MDCK
[11] = system: A/Wilson-Smith/1933 (H1N1); experiment: microbe, parasite or virus in culture; format: cell-based; details: Influenza A virus, H1N1, MDCK
A/WSN/1933 (H1N1) = experiment: microbe, parasite or virus in culture; format: cell-based; details: Influenza A virus, MDCK
A/Kansas/14/2017 (H3N2) = experiment: microbe, parasite or virus in culture; format: cell-based; details: Influenza A virus, H3N2, MDCK
[12] = system: A/Hong Kong/4801/2014 (H3N2); experiment: microbe, parasite or virus in culture; format: cell-based; details: Influenza A virus, H3N2, MDCK
[13] = system: A/California/2/2014 (H3N2); experiment: microbe, parasite or virus in culture; format: cell-based; details: Influenza A virus, H3N2, MDCK
[14] = system: A/Switzerland/971593/2013 (H3N2); experiment: microbe, parasite or virus in culture; format: cell-based; details: Influenza A virus, H3N2, MDCK
A/Perth/16/2009 (H3N2) = experiment: microbe, parasite or virus in culture; format: cell-based; details: Influenza A virus, H3N2, MDCK
B/Florida/78/2015 = experiment: microbe, parasite or virus in culture; format: cell-based; details: Influenza B virus, MDCK
B/Lee/1940 = experiment: microbe, parasite or virus in culture; format: cell-based; details: Influenza B virus, MDCK
[15] = system: A/Vietnam/1203/2004 (H5N1); experiment: microbe, parasite or virus in culture; format: cell-based; details: Influenza A virus, H5N1, MDCK
[16] = system: A/Hong Kong/213/2003 (H5N1); experiment: microbe, parasite or virus in culture; format: cell-based; details: Influenza A virus, H5N1, MDCK
[17] = system: A/cattle/Texas/56283/2024 (H5N1); experiment: microbe, parasite or virus in culture; format: cell-based; details: Influenza A virus, H5N1, MDCK
A/Taiwan/1/2017 (H7N9) = experiment: microbe, parasite or virus in culture; format: cell-based; details: Influenza A virus, H7N9, MDCK
A/Anhui/1/2013 (H7N9) = experiment: microbe, parasite or virus in culture; format: cell-based; details: Influenza A virus, H7N9, MDCK
[18] = system: HPAI H5N1 and H7N9 isolates; experiment: microbe, parasite or virus in culture; format: cell-based; details: Influenza A virus, MDCK, read-out: EC50 values, range over isolates
A549 cells = details: human
HepG2 cells = details: human
[19] = Balb/c, mouse, in vivo
[20] = system: A/Puerto Rico/8/1934 (H1N1); details: mouse, in vivo; cited from earlier work
in vitro [21] = details: dog
in vitro [22] = details: human
[23] = mouse, in vivo; cited from earlier work
[24] = cited from earlier work

Compound `O=C1c2c(O)c(=O)ccn2N([C@@H]2c3ccccc3SCc3c2ccc(F)c3F)[C@@H]2COCCN12` [Baloxavir, baloxavir, reference compound] has an EC50 (A/Weiss/1943 (H1N1); Influenza A virus, H1N1, MDCK) of 0.4 nM, an EC50 ([1]; Influenza A virus, H1N1, MDCK) of 0.57 nM and an EC50 ([2]; read-out: EC50) of 0.68 nM.
`CCOC(=O)C1=C[C@@H](OC(CC)CC)[C@H](NC(C)=O)[C@@H](N)C1` [Oseltamivir, oseltamivir, reference compound] showed a Fold shift (A/Malaya/302/1954 (H1N1)) of 1.19, an EC50 (A/Weiss/1943 (H1N1); Influenza A virus, H1N1, MDCK) of 1050 nM and an EC50 ([1]; Influenza A virus, H1N1, MDCK) of 970 nM. For the same compound, the Fold shift [2] was 0.09, the EC50 ([2]; read-out: EC50) was 90 nM and the “shift in EC50 values relative to reference strain” value [3] was less than 2 fold. For the same compound, the “body weight loss leading to euthanasia” value [4] was greater than 25% and the Lung viral load [5] was “comparable to the vehicle control”.
`COC[C@@]1(C)COC[C@@H](COc2ccc(-c3cc(C(N)=O)c(O)nc3C(F)(F)F)cc2)O1` [VNT-101] showed an EC50 [6] of 6.55 nM, an EC90 [6] of 11.2 nM and an EC50 [7] of 17.7 nM. The EC90 [7] was 29.4 nM, the EC50 [8] was 8.39 nM and the EC90 [8] was 19.2 nM. The EC50 [9] was 14.4 nM, the EC90 [9] was 112 nM and the EC50 [10] was 1.85 nM. The EC90 [10] was 5.12 nM, the EC50 (A/Malaya/302/1954 (H1N1); Influenza A virus, H1N1, MDCK) was greater than 50000 nM and the EC90 (A/Malaya/302/1954 (H1N1); Influenza A virus, H1N1, MDCK) was greater than 50000 nM. The EC50 (A/Weiss/1943 (H1N1)) was 123 nM, the EC50 (A/Weiss/1943 (H1N1); Influenza A virus, H1N1, MDCK) was 123 nM and the EC90 (A/Weiss/1943 (H1N1); Influenza A virus, H1N1, MDCK) was 210 nM. For the same compound, the EC50 [1] was 2.1 nM and 2 nM, the EC50 ([1]; Influenza A virus, H1N1, MDCK) was 2.08 nM and the EC90 ([1]; Influenza A virus, H1N1, MDCK) was 3.22 nM. It also gave an EC50 ([1]; Influenza A virus, H1N1, MDCK, read-out: mean EC50) of 5 nM, an EC50 [11] of 26.3 nM and an EC90 [11] of 50.6 nM. The EC50 (A/WSN/1933 (H1N1)) was 115 nM, the EC90 (A/WSN/1933 (H1N1)) was 191 nM and the EC50 (A/Kansas/14/2017 (H3N2)) was 3.14 nM. For the same compound, the EC90 (A/Kansas/14/2017 (H3N2)) was 18 nM, the EC50 [12] was 2.59 nM and the EC90 [12] was 3.71 nM. The EC50 [13] was 2.2 nM, the EC90 [13] was 3.41 nM and the EC50 [14] was 2.19 nM. For the same compound, the EC90 [14] was 3.32 nM, the EC50 (A/Perth/16/2009 (H3N2)) was 4.05 nM and the EC90 (A/Perth/16/2009 (H3N2)) was 5.68 nM. It also gave an EC50 ([2]; Influenza A virus, H3N2, MDCK) greater than 50000 nM, an EC90 ([2]; Influenza A virus, H3N2, MDCK) greater than 50000 nM and an EC50 ([2]; read-out: EC50) greater than 50000 nM. It also gave an EC50 (B/Florida/78/2015) of 43700 nM, an EC90 (B/Florida/78/2015) greater than 50000 nM and an EC50 (B/Lee/1940) greater than 47500 nM. For the same compound, the EC90 (B/Lee/1940) was greater than 50000 nM, the EC50 [15] was 25 nM and the EC50 [16] was 19 nM. It also gave an EC50 [17] of 65 nM, an EC50 (A/Taiwan/1/2017 (H7N9)) of 69 nM and an EC50 (A/Anhui/1/2013 (H7N9)) of 24 nM. The EC50 ([3]; Influenza A virus, MDCK, read-out: mean EC50 values, range over isolates) was 2 to 18 nM, the EC50 [18] was 19 to 69 nM and the “final mean body weight loss” value [4] was 21.1%. The “maximum mean body weight loss” value [4] was 24.4%, the “maximum mean body weight loss” value ([4]; 30 mg/kg) was 13.6% and 25.1% and the Survival ([4]; po, 100 mg/kg) was 33%. It also gave a CC50 (A549 cells) greater than 100000 nM, a CC50 (HepG2 cells) greater than 100000 nM and a fAUC [19] of 3.045 µM·h. For the same compound, the fCmin [19] was 0.10 µM, the “protection from lethality, prophylaxis” value [20] was “protected mice from lethality” and the CC50 (in vitro [21]) was greater than 100000 nM. It also gave a CC50 (in vitro [22]; Proliferating condition CC50) of 72800 nM, a CC50 (in vitro [22]; Stationary condition CC50 (mean)) greater than 80400 nM and a CC50 (in vitro [22]; Stationary condition CC50, individual runs) greater than 100000 nM. The Cmin [23] was 3.49 ± 1.35 µM and the “percent plasma protein binding” value [24] was 97.1%.
